From publication PMC11519908, “Luminescent Ln(III)-Metallopeptide Sensors for Monitoring Pseudomonas aeruginosa Elastase B Activity in Complex Biological Media” (ACS Sensors, 2024)

Legend:
[1] = system: supernatants from P. aeruginosa mutant strains deficient in LasB (LasB1, LasB2); details: pH 8
[2] = system: supernatants from the LasB-deficient P. aeruginosa mutants; details: P1[Tb]: 0.5 mM probe, 50 mM CaCl2, HEPES buffer, 9 µL supernatant, RT, 1 h before injection

EGLAEW [P1[Tb]]
change of luminescence over time with LasB-deficient P. aeruginosa supernatants [1]: no changes in the luminescence | integrity of probe with LasB-deficient P. aeruginosa supernatants (HPLC-MS) [2]: remained intact
